According to ChEMBL document CHEMBL1201862, “PubChem BioAssay data set” (2004):
The source made the active and inactive calls. For most assays here, no stated cut-off is given here; in the data, actives have a measured EC50 and inactives only a lower limit.

Experiments:
[1] = target: Dual specificity protein kinase CLK4 (Homo sapiens, UniProt Q9HAZ1); format: functional
[2] = target: Mitogen-activated protein kinase kinase kinase kinase 2 (Homo sapiens, UniProt Q12851); format: functional;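 further: measured as one member of a kinome-wide kinase panel, with MAP4K2 as the panel entry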
[3] = target: Latent membrane protein 1 (Human herpesvirus 4 (strain B95-8), UniProt P03230); assay: TES1-eGFP NF-kB reporter inhibition versus Tet-On dsRED, dose response, selectivity assay for LMP1 NF-kB inhibitor project, imaging, HEK293T, dual-color eGFP/dsRED, cherry-picks (AID 588398); format: functional, cell-based
HEK293 = assay: inhibitors of LMP1-driven NF-kB reporter, dose response, cell-based, HEK293, luciferase, cherry-pick (AID 588343); format: functional; conditions: Homo sapiens
[4] = target: T1, Corticotropin-releasing factor receptor 2/Corticotropin-releasing factor-binding protein (Homo sapiens, UniProt P24387+Q13324); assay: activators of CRF receptor 2 with binding protein – uHTS hits, confirmation (AID 602473); format: functional; conditions: read-out: EC50_Mean
T1 sequence (Q13324 whole entry): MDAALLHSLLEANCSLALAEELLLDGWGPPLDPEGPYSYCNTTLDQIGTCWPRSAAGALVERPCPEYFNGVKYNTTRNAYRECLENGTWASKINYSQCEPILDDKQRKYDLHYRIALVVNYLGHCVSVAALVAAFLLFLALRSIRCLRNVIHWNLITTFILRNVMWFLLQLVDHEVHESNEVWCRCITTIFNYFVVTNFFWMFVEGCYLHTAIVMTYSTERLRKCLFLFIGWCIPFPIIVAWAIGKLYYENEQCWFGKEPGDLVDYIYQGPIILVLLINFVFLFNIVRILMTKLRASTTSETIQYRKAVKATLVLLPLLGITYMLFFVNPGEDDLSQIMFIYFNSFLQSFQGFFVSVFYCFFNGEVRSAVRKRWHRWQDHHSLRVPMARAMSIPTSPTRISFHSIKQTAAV
T1 sequence (P24387 whole entry): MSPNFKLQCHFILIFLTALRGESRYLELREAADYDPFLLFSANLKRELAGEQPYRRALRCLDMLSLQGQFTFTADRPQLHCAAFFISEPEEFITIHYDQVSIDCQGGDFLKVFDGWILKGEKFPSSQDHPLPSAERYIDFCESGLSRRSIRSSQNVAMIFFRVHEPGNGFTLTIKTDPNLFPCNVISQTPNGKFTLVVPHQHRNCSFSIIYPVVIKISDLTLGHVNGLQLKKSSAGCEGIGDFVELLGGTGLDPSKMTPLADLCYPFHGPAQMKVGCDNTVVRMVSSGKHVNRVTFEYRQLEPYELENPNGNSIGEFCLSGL

[5] = ADP-Glo luciferase interference without Dyrk1A, dose response, artefact control for Dyrk1A inhibitor project, biochemical, luminescence, cherry-pick, set 02 (AID 588348)
cells [6] = assay: cells
[7] = target: Dual specificity tyrosine-phosphorylation-regulated kinase 1A (Rattus norvegicus, UniProt Q63470); format: biochemical, Homo sapiens
[8] = Luminescence Cell-Based Dose Confirmation HTS to Identify Inhibitors of Platelet Dense Granule Release. [Related pubchem assays: 1663 (Primary HTS), 1678 (Summary of Project)]; format: functional
[9] = target: Luciferin 4-monooxygenase (Photinus pyralis, UniProt P08659); assay: firefly luciferase enzyme inhibitors, dose response, biochemical, luminescence (AID 1891)
[10] = target: T2, Oxysterols receptor LXR-beta (Homo sapiens, UniProt P55055); format: functional, cell-based;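 further: Cell-based luminescence dose-response assay of agonist activity at LXR, run as a confirmatory counterscreen to a daf-12 agonist screen; HEK293 cells with Gal4-LXR fusion and GAL4-driven luciferase reporter; agonist potency from rising luciferase signal of a Gal4-LXR reporter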
T2 sequence (P55055 whole entry): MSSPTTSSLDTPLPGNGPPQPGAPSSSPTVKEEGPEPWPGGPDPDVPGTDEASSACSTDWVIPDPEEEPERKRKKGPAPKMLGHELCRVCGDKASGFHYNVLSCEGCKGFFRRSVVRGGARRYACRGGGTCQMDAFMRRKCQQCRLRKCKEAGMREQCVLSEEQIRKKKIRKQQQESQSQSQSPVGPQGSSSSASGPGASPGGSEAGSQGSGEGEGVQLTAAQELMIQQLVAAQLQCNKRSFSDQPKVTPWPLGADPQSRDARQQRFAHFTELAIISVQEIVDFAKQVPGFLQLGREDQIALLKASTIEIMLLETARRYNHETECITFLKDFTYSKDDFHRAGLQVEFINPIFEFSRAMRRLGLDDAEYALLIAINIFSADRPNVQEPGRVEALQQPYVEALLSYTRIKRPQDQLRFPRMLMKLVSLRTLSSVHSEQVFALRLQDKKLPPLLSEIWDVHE

[11] = luciferase reporter signal reduction – luminescence, H4-C neuroglioblastoma cells, dose response (AID 2458); format: functional, cell-based;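 further: H4 neuroglioblastoma cells stably carrying a luciferase reporter gene fusion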
BJ [12] = assay: cytotoxicity toward Ras-transformed BJeLR fibroblasts, dose response, cell-based, alamar blue fluorescence, cherrypicked samples (AID 2631); format: functional; conditions: Homo sapiens;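 further: confirmatory dose-response assay in RAS-dependent BJ fibroblasts engineered with TERT, LT and ST, with cytotoxicity read by fluorescence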
BJ [13] = assay: cytotoxicity toward BJ-TERT fibroblasts, dose response, cell-based, RAS-independent, luminescence (AID 1933); format: functional; conditions: Homo sapiens
BJ [14] = assay: cytotoxicity toward BJ-TERT-LT-ST fibroblasts, dose response, cell-based, RAS-independent, luminescence (AID 1935); format: functional; conditions: Homo sapiens;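 further: BJ fibroblasts immortalized with TERT plus LT and ST oncogenes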
[15] = cytotoxicity toward DRD oncogenic fibroblasts, dose response, cell-based, non-viral oncogenic, luminescence (AID 1934); format: functional; conditions: Homo sapiens
BJ [16] = assay: cells; format: functional, cell-based; conditions: Homo sapiens
[17] = inhibitors of SNCA 5'UTR-driven translation, confirmation, luminescence, H4 neuroglioblastoma cells, dose confirmation (AID 2454); format: functional, cell-based;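 further: H4 neuroglioblastoma cells carrying an alpha-synuclein 5'UTR luciferase reporter; potency for inhibition of the luciferase signal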
[18] = Luminescence-based dose response cell-based high throughput screening assay for cytotoxic compounds using the IEC-6 intestinal epithelial cell line. [Related pubchem assays: 1858 (Summary AID.), 1825 (Counterscreen.), 1907 (Confirmation screen.)]; format: functional
cells [19] = format: functional, cell-based
[20] = inhibitors of firefly luciferase expression or activity, dose response, H4 neuroglioma cells, luminescence (AID 1990); format: functional, cell-based
[21] = Luminescence Cell-Based Dose Response HTS to Identify Inhibitors of 5'UTR Stem-Loop Driven Prion Protein mRNA Translation in H4 Neuroglioblastoma Cells. [Related pubchem assays: 1827 (Project Summary), 1813 (Primary HTS)]; format: functional
[22] = inhibitors of SNCA 5'UTR-driven reporter translation, confirmation, H4 neuroglioma cells, luminescence (AID 1988); format: functional, cell-based
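Wherever IC50 is given: cell viability measured after two days of compound exposure.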

Chain of Latent membrane protein 1 (P03230 whole entry): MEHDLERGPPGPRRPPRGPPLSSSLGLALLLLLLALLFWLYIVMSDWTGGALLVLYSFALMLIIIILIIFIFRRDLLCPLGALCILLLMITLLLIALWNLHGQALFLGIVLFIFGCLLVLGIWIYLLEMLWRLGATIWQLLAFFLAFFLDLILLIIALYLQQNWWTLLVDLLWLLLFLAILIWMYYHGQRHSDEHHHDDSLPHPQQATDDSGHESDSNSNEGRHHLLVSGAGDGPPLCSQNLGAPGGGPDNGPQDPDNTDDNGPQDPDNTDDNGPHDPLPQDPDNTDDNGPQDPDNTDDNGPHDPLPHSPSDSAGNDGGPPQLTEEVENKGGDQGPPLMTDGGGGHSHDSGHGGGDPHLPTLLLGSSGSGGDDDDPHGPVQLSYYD
Chain of Dual specificity protein kinase CLK4 (Q9HAZ1 whole entry): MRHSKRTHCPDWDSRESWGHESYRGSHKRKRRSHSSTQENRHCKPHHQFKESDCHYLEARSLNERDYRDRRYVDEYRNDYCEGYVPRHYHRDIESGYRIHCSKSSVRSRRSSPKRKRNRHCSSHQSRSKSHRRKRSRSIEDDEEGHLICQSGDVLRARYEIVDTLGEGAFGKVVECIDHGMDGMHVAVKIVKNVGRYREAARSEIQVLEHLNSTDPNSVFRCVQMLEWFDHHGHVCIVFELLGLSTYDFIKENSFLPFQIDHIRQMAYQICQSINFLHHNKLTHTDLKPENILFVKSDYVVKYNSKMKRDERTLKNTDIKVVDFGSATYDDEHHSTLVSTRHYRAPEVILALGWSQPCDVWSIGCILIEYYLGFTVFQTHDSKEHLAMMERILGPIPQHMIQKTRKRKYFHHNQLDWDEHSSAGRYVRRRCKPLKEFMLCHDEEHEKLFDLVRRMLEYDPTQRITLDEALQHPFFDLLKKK
Chain of Luciferin 4-monooxygenase (P08659 whole entry, the tested form may be a part): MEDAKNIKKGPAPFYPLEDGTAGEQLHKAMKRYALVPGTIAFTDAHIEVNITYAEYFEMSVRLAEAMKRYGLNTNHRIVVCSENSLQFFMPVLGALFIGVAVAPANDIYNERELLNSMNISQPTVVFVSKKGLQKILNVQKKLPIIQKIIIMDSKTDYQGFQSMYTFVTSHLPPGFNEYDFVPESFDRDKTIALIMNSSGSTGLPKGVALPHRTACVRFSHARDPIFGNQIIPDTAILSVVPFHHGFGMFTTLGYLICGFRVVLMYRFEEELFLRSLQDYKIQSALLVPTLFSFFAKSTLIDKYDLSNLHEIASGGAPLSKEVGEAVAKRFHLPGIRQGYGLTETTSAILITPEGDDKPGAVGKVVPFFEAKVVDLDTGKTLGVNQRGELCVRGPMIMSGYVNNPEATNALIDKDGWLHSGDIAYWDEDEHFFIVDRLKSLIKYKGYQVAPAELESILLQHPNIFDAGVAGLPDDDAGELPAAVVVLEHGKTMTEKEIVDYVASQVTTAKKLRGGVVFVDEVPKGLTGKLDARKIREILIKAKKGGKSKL
Chain of Mitogen-activated protein kinase kinase kinase kinase 2 (Q12851 whole entry): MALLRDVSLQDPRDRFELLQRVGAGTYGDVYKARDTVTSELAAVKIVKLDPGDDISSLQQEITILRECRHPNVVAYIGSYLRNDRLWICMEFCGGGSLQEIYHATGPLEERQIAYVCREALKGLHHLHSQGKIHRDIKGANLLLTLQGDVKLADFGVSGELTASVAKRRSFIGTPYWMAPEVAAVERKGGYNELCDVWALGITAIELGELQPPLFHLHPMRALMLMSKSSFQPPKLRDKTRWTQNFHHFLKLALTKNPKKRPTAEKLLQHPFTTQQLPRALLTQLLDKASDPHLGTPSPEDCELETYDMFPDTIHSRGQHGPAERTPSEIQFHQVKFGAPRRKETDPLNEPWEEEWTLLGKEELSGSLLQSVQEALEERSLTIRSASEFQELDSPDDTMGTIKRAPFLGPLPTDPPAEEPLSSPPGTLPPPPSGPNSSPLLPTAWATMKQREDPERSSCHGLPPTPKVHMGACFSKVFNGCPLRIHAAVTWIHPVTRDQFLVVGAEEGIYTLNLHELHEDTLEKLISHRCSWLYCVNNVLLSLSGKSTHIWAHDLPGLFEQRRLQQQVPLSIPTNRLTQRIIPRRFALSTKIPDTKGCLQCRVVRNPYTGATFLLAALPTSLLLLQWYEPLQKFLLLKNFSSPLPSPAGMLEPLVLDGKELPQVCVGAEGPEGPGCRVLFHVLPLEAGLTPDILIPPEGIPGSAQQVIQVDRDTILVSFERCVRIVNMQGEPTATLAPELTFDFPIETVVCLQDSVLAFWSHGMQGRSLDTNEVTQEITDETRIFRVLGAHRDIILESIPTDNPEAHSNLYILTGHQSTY

## O=C1CC(c2ccc(Cl)cc2Cl)Cc2[nH]c3ccc(Cl)cc3c(=O)c21 (stereo not drawn)
[1]
  Ki: 7940 nM (active)
[2]
  Ki: 5010 nM (active)

## CC(C)(C)c1ccc(C(=O)N2CCC(=O)N(C(CO)Cc3ccccc3)CC2)cc1 (stereo not drawn)
[3]
  AC50: 347000 nM (active)
HEK293
  AC50: 173000 nM (active)
[4]
  EC50: > 53000 nM (inactive)

## Cc1ccccc1C(=O)O/N=C(\N)c1ccccc1
[5]
  AC50: 60900 nM (active)
Cells [6]
  EC50: > 67500 nM (inactive)
[7]
  AC50: 62500 nM (active)
[8]
  EC50: 2720 nM (active)
[9]
  EC50: 3420 nM (active)
[10]
  EC50: > 67500 nM (inactive)

## C#CCOc1ccc(C2C3=C(O)OCC3=Nc3cc4c(cc32)OCO4)cc1OC (stereo not drawn)
[11]
  EC50: 234 nM (active)
BJ [12]
  EC50: < 104 nM (active)
BJ [13]
  EC50: 3140 nM (inconclusive)
BJ [14]
  EC50: 942 nM (active)
[15]
  EC50: 900 nM (inconclusive)
BJ [16]
  EC50: 2720 nM (inconclusive)
[17]
  EC50: 231 nM (active)
[18]
  IC50: 47.1 nM (active)
Cells [19]
  EC50: 371 nM (active)
[20]
  EC50: < 100 nM (active)
[21]
  EC50: < 100 nM (active)
[22]
  EC50: < 100 nM (active)
